ChEMBL document CHEMBL1145498, “A systematic interaction map of validated kinase inhibitors with Ser/Thr kinases” (Proc Natl Acad Sci U S A, 2007)

Columns and labels:
[1] = molecular target: Calcium/calmodulin-dependent protein kinase type 1G (Homo sapiens) (UniProt Q96NX5)
[2] = molecular target: Calcium/calmodulin-dependent protein kinase type II subunit alpha (Homo sapiens) (UniProt Q9UQM7)
[3] = molecular target: Calcium/calmodulin-dependent protein kinase type II subunit delta (Homo sapiens) (UniProt Q13557)
[4] = molecular target: Calcium/calmodulin-dependent protein kinase type II subunit gamma (Homo sapiens) (UniProt Q13555)
[5] = molecular target: T1, Calcium/calmodulin-dependent protein kinase type IV (Homo sapiens) (UniProt Q16566)
T1 sequence (whole entry): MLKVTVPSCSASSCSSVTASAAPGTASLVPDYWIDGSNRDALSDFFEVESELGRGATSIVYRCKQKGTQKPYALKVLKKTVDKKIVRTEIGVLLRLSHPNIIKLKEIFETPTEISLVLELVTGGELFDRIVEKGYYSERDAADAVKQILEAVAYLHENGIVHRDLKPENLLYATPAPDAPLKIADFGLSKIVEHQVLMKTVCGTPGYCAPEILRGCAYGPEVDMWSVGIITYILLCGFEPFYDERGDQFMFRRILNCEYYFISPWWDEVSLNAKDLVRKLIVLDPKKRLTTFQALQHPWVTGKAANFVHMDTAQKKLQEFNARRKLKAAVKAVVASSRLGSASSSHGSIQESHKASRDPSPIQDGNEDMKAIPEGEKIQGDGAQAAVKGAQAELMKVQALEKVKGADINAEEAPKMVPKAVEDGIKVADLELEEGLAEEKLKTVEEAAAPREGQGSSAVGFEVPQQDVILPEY

[6] = molecular target: Serine/threonine-protein kinase Chk2 (Homo sapiens, UniProt O96017)
[7] = molecular target: T2, Myotonin-protein kinase (Homo sapiens) (UniProt Q09013)
T2 sequence (whole entry): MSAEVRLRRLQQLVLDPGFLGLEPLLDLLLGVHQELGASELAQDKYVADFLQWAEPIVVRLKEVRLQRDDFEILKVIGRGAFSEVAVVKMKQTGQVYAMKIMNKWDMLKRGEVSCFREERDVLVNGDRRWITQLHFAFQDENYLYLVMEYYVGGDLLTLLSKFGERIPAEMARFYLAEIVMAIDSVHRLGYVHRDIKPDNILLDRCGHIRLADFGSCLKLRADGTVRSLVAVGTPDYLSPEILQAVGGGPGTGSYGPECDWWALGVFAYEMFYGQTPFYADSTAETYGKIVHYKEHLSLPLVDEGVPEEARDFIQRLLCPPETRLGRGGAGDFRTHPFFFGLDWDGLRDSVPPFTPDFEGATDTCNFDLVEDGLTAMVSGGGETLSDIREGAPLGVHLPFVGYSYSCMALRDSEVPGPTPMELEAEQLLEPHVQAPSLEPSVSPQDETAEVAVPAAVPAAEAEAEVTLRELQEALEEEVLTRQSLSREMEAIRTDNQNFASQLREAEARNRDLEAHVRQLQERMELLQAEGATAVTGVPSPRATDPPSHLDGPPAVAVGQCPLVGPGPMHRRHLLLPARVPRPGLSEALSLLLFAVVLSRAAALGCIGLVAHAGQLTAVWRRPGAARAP

[8] = molecular target: Mitogen-activated protein kinase 11 (Homo sapiens, UniProt Q15759)
[9] = molecular target: T3, 3-phosphoinositide-dependent protein kinase 1 (Homo sapiens) (UniProt O15530)
T3 sequence (whole entry): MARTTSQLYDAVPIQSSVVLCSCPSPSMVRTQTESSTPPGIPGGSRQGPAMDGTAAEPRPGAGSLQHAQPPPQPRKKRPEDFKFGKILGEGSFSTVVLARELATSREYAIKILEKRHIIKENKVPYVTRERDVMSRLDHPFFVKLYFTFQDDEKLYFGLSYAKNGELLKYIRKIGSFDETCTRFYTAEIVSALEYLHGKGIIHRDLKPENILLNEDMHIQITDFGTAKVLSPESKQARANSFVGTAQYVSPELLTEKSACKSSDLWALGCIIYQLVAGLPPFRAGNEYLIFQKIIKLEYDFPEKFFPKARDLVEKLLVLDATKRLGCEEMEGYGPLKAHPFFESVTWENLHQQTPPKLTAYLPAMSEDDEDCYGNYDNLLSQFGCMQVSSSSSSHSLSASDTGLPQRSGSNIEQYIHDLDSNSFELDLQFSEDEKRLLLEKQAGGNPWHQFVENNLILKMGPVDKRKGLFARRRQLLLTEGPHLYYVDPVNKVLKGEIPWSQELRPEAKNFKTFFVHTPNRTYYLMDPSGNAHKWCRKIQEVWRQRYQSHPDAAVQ

[10] = molecular target: Serine/threonine-protein kinase pim-2 (Homo sapiens, UniProt Q9P1W9)
[11] = molecular target: Serine/threonine-protein kinase pim-3 (Homo sapiens) (UniProt Q86V86)
[12] = molecular target: Serine/threonine-protein kinase PLK1 (Homo sapiens) (UniProt P53350)
[13] = molecular target: Serine/threonine-protein kinase RIO2 (Homo sapiens) (UniProt Q9BVS4)
[14] = molecular target: Ribosomal protein S6 kinase alpha-3 (Homo sapiens) (UniProt P51812)
[15] = molecular target: Serine/threonine-protein kinase 16 (Homo sapiens) (UniProt O75716)
[16] = molecular target: TRAF2 and NCK-interacting protein kinase (Homo sapiens) (UniProt Q9UKE5)
[17] = molecular target: T4, Lymphokine-activated killer T-cell-originated protein kinase (Homo sapiens) (UniProt Q96KB5)
T4 sequence (whole entry): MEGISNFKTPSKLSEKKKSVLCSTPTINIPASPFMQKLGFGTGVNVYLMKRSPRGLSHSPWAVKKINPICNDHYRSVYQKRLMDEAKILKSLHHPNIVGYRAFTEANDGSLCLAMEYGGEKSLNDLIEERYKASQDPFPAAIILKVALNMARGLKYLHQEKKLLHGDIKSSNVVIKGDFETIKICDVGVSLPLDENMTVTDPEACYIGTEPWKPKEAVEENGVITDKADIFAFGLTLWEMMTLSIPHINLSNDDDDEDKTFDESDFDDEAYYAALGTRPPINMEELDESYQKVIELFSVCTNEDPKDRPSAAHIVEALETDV

[18] = molecular target: Serine/threonine-protein kinase 25 (Homo sapiens) (UniProt O00506)
Serine/threonine-protein kinase 25 (Homo sapiens), sequence (O00506 whole entry, looked up): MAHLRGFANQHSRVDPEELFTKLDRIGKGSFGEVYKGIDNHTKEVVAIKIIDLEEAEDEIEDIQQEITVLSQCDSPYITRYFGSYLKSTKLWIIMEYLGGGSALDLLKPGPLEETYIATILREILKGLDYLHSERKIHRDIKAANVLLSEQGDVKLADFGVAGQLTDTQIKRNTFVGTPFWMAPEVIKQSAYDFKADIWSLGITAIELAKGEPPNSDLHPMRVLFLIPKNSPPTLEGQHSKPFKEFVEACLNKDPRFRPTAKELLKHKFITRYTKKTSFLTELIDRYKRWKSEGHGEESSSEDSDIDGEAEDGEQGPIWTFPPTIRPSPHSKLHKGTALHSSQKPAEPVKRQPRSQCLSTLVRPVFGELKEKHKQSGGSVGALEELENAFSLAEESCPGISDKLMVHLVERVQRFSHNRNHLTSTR

Calcium/calmodulin-dependent protein kinase type 1G (Homo sapiens), sequence (Q96NX5 whole entry): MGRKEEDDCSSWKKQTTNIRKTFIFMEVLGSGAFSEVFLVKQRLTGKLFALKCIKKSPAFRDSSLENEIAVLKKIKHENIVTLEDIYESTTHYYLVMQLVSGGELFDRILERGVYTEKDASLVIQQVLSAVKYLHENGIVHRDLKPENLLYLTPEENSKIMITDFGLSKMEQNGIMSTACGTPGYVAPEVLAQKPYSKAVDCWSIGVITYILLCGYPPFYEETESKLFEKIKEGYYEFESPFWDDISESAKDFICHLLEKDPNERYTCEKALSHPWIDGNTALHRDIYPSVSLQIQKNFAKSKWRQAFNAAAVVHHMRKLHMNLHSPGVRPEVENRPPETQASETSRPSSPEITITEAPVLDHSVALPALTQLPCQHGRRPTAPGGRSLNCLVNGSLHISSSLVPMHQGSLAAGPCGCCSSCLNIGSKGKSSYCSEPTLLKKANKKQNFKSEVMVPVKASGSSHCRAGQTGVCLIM
Ribosomal protein S6 kinase alpha-3 (Homo sapiens), sequence (P51812 whole entry): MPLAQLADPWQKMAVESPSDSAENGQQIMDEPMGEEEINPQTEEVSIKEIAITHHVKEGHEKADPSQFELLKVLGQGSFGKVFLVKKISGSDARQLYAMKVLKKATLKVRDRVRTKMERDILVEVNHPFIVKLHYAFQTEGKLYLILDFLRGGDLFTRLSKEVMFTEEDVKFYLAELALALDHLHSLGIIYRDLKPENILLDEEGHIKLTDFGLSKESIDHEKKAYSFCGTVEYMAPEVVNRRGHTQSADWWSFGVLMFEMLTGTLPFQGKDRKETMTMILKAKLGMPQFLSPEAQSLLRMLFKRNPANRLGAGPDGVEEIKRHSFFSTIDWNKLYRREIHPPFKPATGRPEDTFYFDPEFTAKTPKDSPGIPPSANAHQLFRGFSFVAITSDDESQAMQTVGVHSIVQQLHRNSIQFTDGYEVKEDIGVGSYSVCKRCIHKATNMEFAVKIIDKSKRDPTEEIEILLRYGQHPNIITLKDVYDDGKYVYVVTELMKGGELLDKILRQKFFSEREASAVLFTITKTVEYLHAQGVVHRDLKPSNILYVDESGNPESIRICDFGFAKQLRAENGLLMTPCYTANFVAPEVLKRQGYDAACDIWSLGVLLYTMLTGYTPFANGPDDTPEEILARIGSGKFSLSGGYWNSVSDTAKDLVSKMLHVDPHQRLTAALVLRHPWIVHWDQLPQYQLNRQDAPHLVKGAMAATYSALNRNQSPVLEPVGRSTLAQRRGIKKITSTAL
Serine/threonine-protein kinase PLK1 (Homo sapiens), sequence (P53350 whole entry): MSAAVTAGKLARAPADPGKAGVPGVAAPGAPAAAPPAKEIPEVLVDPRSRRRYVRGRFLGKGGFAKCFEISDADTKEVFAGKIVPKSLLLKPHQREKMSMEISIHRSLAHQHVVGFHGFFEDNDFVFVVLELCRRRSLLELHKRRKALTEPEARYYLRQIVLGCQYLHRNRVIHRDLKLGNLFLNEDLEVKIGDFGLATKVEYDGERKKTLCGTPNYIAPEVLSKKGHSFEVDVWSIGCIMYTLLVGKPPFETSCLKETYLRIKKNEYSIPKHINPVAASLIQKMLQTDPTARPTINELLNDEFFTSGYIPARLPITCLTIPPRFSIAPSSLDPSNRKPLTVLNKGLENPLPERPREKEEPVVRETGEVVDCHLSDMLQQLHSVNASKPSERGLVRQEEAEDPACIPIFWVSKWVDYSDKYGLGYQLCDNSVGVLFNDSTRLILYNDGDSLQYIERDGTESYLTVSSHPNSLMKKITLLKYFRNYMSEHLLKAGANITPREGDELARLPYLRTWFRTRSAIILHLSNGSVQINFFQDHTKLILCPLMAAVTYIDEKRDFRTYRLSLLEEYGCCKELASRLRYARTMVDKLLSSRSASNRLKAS
TRAF2 and NCK-interacting protein kinase (Homo sapiens), sequence (Q9UKE5 whole entry, looked up): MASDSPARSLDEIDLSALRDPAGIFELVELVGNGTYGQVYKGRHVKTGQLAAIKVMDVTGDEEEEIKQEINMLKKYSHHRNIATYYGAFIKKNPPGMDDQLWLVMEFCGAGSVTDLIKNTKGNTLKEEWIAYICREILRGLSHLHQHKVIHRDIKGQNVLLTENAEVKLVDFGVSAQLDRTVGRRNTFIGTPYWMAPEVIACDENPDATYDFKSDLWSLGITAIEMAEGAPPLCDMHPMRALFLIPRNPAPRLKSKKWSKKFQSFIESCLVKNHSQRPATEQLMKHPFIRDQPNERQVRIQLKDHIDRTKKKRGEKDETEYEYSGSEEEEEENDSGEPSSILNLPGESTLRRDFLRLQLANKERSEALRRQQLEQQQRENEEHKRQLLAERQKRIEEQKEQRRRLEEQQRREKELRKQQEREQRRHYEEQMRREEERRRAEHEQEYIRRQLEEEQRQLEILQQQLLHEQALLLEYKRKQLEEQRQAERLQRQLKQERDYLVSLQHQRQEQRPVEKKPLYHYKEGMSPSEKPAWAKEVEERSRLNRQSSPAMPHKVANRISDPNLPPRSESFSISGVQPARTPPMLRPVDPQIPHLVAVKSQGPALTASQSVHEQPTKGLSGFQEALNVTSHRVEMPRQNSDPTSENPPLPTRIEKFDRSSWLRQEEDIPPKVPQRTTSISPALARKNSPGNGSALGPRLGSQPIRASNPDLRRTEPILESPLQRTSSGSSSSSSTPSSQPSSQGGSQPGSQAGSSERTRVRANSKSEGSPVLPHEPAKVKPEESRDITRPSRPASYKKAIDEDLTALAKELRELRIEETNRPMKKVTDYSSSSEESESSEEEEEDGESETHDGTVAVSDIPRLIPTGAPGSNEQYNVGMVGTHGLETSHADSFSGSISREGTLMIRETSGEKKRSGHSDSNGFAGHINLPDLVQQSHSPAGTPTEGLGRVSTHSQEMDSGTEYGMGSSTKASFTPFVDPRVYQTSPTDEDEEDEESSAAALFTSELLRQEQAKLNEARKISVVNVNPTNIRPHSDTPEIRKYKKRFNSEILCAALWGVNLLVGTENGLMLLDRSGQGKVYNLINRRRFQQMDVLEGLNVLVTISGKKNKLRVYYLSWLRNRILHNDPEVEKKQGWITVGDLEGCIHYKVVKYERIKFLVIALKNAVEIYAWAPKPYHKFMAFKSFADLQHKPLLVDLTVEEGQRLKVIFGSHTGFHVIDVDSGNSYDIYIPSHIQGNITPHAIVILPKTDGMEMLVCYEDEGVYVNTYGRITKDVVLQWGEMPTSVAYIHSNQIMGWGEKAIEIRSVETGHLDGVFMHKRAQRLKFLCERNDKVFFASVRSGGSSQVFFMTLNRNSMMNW
Serine/threonine-protein kinase 16 (Homo sapiens), sequence (O75716 whole entry): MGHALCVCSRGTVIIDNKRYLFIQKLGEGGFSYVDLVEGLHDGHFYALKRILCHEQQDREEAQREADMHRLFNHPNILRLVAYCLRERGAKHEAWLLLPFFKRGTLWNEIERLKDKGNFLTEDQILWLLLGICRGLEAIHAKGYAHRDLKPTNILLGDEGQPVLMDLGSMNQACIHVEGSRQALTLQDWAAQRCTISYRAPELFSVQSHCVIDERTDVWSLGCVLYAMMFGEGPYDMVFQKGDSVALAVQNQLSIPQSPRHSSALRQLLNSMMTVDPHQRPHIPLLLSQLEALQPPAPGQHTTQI
Calcium/calmodulin-dependent protein kinase type II subunit gamma (Homo sapiens), sequence (Q13555 whole entry): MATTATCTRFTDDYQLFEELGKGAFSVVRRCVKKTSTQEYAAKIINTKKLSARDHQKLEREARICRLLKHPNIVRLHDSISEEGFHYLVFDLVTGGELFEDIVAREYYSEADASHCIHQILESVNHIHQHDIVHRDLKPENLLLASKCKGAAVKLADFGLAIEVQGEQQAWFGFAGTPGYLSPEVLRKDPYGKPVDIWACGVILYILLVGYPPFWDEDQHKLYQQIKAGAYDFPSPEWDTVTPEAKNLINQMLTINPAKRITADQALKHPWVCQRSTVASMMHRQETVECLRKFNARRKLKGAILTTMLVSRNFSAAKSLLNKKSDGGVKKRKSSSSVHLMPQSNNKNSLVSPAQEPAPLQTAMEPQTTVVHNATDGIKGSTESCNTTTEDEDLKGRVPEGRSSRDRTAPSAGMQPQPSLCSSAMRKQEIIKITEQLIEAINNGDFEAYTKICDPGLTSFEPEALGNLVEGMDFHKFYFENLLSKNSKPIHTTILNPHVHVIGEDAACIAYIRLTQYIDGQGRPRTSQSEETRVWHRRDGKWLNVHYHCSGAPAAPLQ

| SMILES | ΔTm [1] | ΔTm [2] | ΔTm [3] | ΔTm [4] | ΔTm [5] | ΔTm [6] | ΔTm [7] | ΔTm [8] | ΔTm [9] | ΔTm [10] | ΔTm [11] | ΔTm [12] | ΔTm [13] | ΔTm [14] | ΔTm [15] | ΔTm [16] | ΔTm [17] | ΔTm [18] |
| --- | --- | --- | --- | --- | --- | --- | --- | --- | --- | --- | --- | --- | --- | --- | --- | --- | --- | --- |
| CN(C)CCCn1cc(C2=C(c3c[nH]c4ccccc34)C(=O)NC2=O)c2ccccc21 [GF-109203] | 0.6 °C | 2.4 °C | 1.1 °C | 2.9 °C | 1.1 °C | 7.1 °C | 3.9 °C | 0.7 °C | -0.2 °C | 5.2 °C | 9.1 °C | 1 °C | 0.3 °C | 7.8 °C | 2.1 °C | 2 °C | 0.2 °C | 2.7 °C |
| Brc1c(Br)c(Br)c2[nH]nnc2c1Br [TETRABROMOBENZOTRIAZOLE] | -0.7 °C | 1.2 °C | -0.7 °C | 0.6 °C | 0.4 °C | 0.5 °C | 1.1 °C | 0.8 °C | -4.4 °C | 4.2 °C | 4.9 °C | 2.3 °C | 3.1 °C | 1.5 °C | 1.1 °C | -0.8 °C | -0.3 °C | 0.7 °C |
| O=C1C(Cl)=C(N2C(=O)CCC2=O)C(=O)c2ccccc21 | -1.9 °C | 3.4 °C | -1.5 °C | -0.4 °C | 1.2 °C | 5.6 °C | -0.9 °C | 8.6 °C | -1.9 °C | -4.1 °C | -1.7 °C | -0.2 °C | -1.5 °C | -0.8 °C | -0.1 °C | -2.4 °C | -4.4 °C | -0.5 °C |
| CN(C)c1ncnc2nc[nH]c12 [DIMETHYLADENINE] | -0.1 °C | 1.7 °C | -0.2 °C | 0 °C | 0.1 °C | 0.5 °C | 0.8 °C | 0.1 °C | 0.1 °C | 0.3 °C | 0.9 °C | 0.5 °C | 0.1 °C | 0.6 °C | 0.5 °C | 0 °C | 0.5 °C | 0.9 °C |
